Patent US11364239B2 (priority 2020, dated 2022)
“Also recorded” adds a separate entry of the source.

Experiments:
[1] = tested on: Cyp enzymes (Cyp2b2, Cyp1a1, Cyp3a18, Cyp3a9, Cyp2d2, Cyp2c7, Cyp2a3, Cyp2d1, Cyp2c24, Cyp4a2); details: in vivo
[2] = tested on: Aflatoxin B1-exposed rats; details: rat, in vivo
[3] = tested on: Aflatoxin B1-exposed rats; details: rat, in vivo; remark: listed apart in the source
rats = details: rat, in vivo

## CC(C)CN(C[C@@H](O)[C@H](Cc1ccccc1)NC(=O)O[C@H]1CCOC1)S(=O)(=O)c1ccc(N)cc1 [Amprenavir, [(3S)-oxolan-3-yl] N-[(2S,3R)-4-[(4-aminophenyl)sulfonyl-(2-methylpropyl)amino]-3-hydroxy-1-phenylbutan-2-yl]carbamate]
[1]
  expression of Cyp enzymes in rat livers (transcriptomics): greatly upregulated
[2]
  final weights (indexed weight): no pairwise comparisons showed significant differences
  liver fibrosis, as assessed by Sirius Red staining: decreased liver fibrosis
  liver hydroxyproline content: trend towards decreased liver hydroxyproline content
  liver hydroxyproline levels (a measure of liver fibrosis): trends towards decreased hydroxyproline
  overall Aflatoxin B1 mitigation activity (liver histopathology: hepatocellular BrdU staining, serum transaminases, hydroxyproline levels): excellent mitigation activity; also recorded: most efficacious drug
  serum ALT levels: significantly lower
  serum transaminases: lower serum transaminases
  survival: improved survival
[3]
  effect on Aflatoxin B1-induced reduction in weight gain: no effect
  liver hydroxyproline: trends towards reducing
  morphometric measurement of liver fibrosis: trends towards reducing
  overall effects on Aflatoxin B1-induced liver injury: significant or trends towards significant beneficial effects
  serum ALT: reduced serum ALT

## c1cn2cc(-c3ccc4cn[nH]c4c3)nc(Nc3ccc(N4CCOCC4)cc3)c2n1 [Entospletinib]
[2]; po
  mitigating Aflatoxin B1 induced toxicity or injury: only mildly efficacious

## CCOC(=O)[C@H](CCc1ccccc1)N[C@@H](C)C(=O)N1Cc2ccccc2C[C@H]1C(=O)O [Quinapril]
[2]; po
  beneficial effects on Aflatoxin B1-induced growth impairment or hepatotoxicity: did not show beneficial effects

## Aflatoxin B1
rats
  food intake: comparable food intake
  hepatocellular BrdU staining: variable
  liver histopathology: abnormal liver histopathology
  liver hydroxyproline: significant increase
  serum ALT: reduced Serum ALT
  serum transaminases: trend towards increased serum transaminases
  tissue hydroxyproline: mild elevation
  weight gain: decreased weight gain

## Cyp3cide
[2]; po, 50 mg/kg
  reduction of Aflatoxin B1-induced liver injury: did not reduce
